# Reference: paper PMC9120017, “Inhibition mechanism of the chloride channel TMEM16A by the pore blocker 1PBC” (Nature Communications, 2022)
# Read-outs that look alike come from different tables or passages of the source.
# Biological target: T1, wild-type mouse TMEM16A (Mus musculus, UniProt Q8BHY3)
# T1 construct: expressed in transfected cells; host or cells: HEK293T
# T1 sequence (Q8BHY3 1-960): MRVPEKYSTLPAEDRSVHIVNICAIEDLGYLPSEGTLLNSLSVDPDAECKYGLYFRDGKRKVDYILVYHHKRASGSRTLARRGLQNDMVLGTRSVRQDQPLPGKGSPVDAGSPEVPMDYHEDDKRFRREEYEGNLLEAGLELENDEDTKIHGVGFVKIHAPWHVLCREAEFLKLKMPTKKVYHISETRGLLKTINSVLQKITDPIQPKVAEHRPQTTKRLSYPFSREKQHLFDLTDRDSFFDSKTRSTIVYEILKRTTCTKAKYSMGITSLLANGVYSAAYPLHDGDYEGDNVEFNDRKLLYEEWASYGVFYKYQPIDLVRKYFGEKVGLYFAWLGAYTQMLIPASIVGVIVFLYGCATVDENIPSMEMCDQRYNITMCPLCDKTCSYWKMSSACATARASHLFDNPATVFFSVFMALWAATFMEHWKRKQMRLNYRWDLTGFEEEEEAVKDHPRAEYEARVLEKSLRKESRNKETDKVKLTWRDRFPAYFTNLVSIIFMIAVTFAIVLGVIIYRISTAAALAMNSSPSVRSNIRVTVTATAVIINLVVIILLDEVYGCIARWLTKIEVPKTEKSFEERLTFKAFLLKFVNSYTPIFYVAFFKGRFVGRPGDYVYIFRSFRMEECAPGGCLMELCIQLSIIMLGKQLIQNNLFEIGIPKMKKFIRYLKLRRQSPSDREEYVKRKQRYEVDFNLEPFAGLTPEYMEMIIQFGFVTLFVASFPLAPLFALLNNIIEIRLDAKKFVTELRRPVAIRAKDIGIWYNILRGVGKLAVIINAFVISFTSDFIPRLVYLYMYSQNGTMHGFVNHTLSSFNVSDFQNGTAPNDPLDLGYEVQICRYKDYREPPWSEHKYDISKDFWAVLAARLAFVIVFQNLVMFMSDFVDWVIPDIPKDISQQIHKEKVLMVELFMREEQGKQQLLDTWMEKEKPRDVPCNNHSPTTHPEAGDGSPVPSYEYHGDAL
# Assay: Inside-out patch recording of 1PBC block, wild-type TMEM16A
# Format: cell-based
# Conditions: for remaining activity at 100 µM: read-out: I/Imax
# Experimental: HEK293T cells (ATCC CRL-1573) were maintained in Dulbecco’s modified Eagle’s medium (DMEM; Sigma-Aldrich) supplemented with 10 U ml^−1 penicillin, 0.1 mg ml^−1 streptomycin (Sigma-Aldrich), 2 mM L-glutamine (Sigma-Aldrich), and 10% FBS (Sigma-Aldrich) in a humidified atmosphere containing 5% CO2 at 37 °C. HEK293S GnTI^− cells (ATCC CRL-3022) were maintained in HyClone HyCell TransFx-H medium (GE Healthcare) supplemented with 10 U ml^−1 penicillin, 0.1 mg ml^−1 streptomycin, 4 mM L-glutamine, 0.15% poloxamer 188 (Sigma-Aldrich), and 1% FBS in an atmosphere containing 5% CO2 at 185 rpm at 37 °C. The ac splice variant of mouse TMEM16A (UniProt ID: Q8BHY3), mouse TMEM16B (UniProt ID: Q8CFW1), or mouse TMEM16F (UniProt ID: Q6P9J9) bearing a 3C cleavage site, a Venus YFP, a Myc tag, and a Streptavidin-binding peptide (SBP) downstream of the open reading frame in a modified pcDNA3.1 vector (Invitrogen) were used as described previously[21],[31]. Mutations were introduced using a modified QuikChange method[58] and were verified by sequencing.
# HEK293T cells were transfected with 3–4 μg DNA per 6 cm Petri dish using the calcium phosphate co-precipitation method and were used within 24–96 h after transfection. Recordings were performed on inside-out patches excised from HEK293T cells expressing the construct of interest. Patch pipettes were pulled from borosilicate glass capillaries (O.D. 1.5 mm, I.D. 0.86 mm, Sutter Instrument) and were fire-polished with a microforge (Narishige) before use. Pipette resistance was typically 3–8 MΩ when filled with the recording solutions detailed below. Seal resistance was typically 4 GΩ or higher. Voltage-clamp recordings were made using Axopatch 200B, Digidata 1550, and Clampex 10.7 (Molecular Devices). Analog signals were filtered with the in-built 4-pole Bessel filter at 10 kHz and were digitized at 20 kHz. Solution exchange was achieved using a gravity-fed system through a theta glass pipette mounted on an ultra-fast piezo-driven stepper (Siskiyou). […] All recordings were performed at 20 °C.
# A symmetrical ionic condition was used throughout. Stock solution with Ca^2+-EGTA contained 150 mM NaCl, 5.99 mM Ca(OH)2, 5 mM EGTA, and 10 mM HEPES at pH 7.40. Stock solution with EGTA contained 150 mM NaCl, 5 mM EGTA, and 10 mM HEPES at pH 7.40. Free Ca^2+ concentrations were adjusted by mixing the stock solutions at the required ratios calculated using the WEBMAXC program (http://web.stanford.edu/~cpatton/webmaxcS.htm). Patch pipettes were filled with the stock solution with Ca^2+-EGTA, which has a free Ca^2+ concentration of 1 mM. 1PBC (ChemBridge) stock was reconstituted in anhydrous DMSO (Sigma-Aldrich) at 100 mM and stored at −20 °C. Working solutions with 1PBC were prepared by serial dilution. Unless otherwise stated, experiments were performed at a saturating Ca^2+ concentration as shown in Supplementary Table 1 and the primary data were corrected for current rundown as described previously[21],[25].
# Concentration-response relations, obtained from the ratio of the I-V plots before and after the application of the blocker, were fitted to the Hill equation,1 I/Imax=1/1+IC50/[blocker]^h where I/Imax is the normalized current responses, IC50 defines the concentration at which inhibition is at its half-maximum, and h is the Hill coefficient.
# [1] = 100 µM 1PBC, -100 mV, 2 µM Ca2+
# [2] = 100 µM 1PBC, -120 mV, 2 µM Ca2+
# [3] = 100 µM 1PBC, -140 mV, 2 µM Ca2+
smiles,measurement,setting,value
N#Cc1c(C(F)(F)F)cc(O)n2c1nc1ccccc12 [1PBC],I/Imax scaled to open probability,"100 µM 1PBC, 2 µM Ca2+, 80 mV",0.02162
same,Steady-state current (normalized),"100 µM 1PBC, 20 mV, 2 µM Ca2+",0.006925
same,remaining activity at 100 µM,"100 µM 1PBC, 20 mV, 2 µM Ca2+",3.56%
same,Steady-state current (normalized),"100 µM 1PBC, 40 mV, 2 µM Ca2+",0.0112
same,remaining activity at 100 µM,"100 µM 1PBC, 40 mV, 2 µM Ca2+",2.97%
same,Steady-state current (normalized),"100 µM 1PBC, 60 mV, 2 µM Ca2+",0.0148
same,remaining activity at 100 µM,"100 µM 1PBC, 60 mV, 2 µM Ca2+",2.68%
same,Steady-state current (normalized),"100 µM 1PBC, 80 mV, 2 µM Ca2+",0.01763
same,remaining activity at 100 µM,"100 µM 1PBC, 80 mV, 2 µM Ca2+",2.49%
same,Steady-state current (normalized),"100 µM 1PBC, 100 mV, 2 µM Ca2+",0.02038
same,remaining activity at 100 µM,"100 µM 1PBC, 100 mV, 2 µM Ca2+",2.4%
same,Steady-state current (normalized),"100 µM 1PBC, 120 mV, 2 µM Ca2+",0.024
same,remaining activity at 100 µM,"100 µM 1PBC, 120 mV, 2 µM Ca2+",2.47%
same,Steady-state current (normalized),"100 µM 1PBC, 140 mV, 2 µM Ca2+",0.02832
same,remaining activity at 100 µM,"100 µM 1PBC, 140 mV, 2 µM Ca2+",2.6%
same,Steady-state current (normalized),"100 µM 1PBC, -20 mV, 2 µM Ca2+",-0.01026
same,remaining activity at 100 µM,"100 µM 1PBC, -20 mV, 2 µM Ca2+",5.33%
same,Steady-state current (normalized),"100 µM 1PBC, -40 mV, 2 µM Ca2+",-0.02602
same,remaining activity at 100 µM,"100 µM 1PBC, -40 mV, 2 µM Ca2+",6.7%
same,Steady-state current (normalized),"100 µM 1PBC, -60 mV, 2 µM Ca2+",-0.04778
same,remaining activity at 100 µM,"100 µM 1PBC, -60 mV, 2 µM Ca2+",8.25%
same,Steady-state current (normalized),"100 µM 1PBC, -80 mV, 2 µM Ca2+",-0.07707
same,remaining activity at 100 µM,"100 µM 1PBC, -80 mV, 2 µM Ca2+",10%
same,Steady-state current (normalized),[1],-0.1118
same,remaining activity at 100 µM,[1],11.8%
same,Steady-state current (normalized),[2],-0.1551
same,remaining activity at 100 µM,[2],13.9%
same,Steady-state current (normalized),[3],-0.2042
same,remaining activity at 100 µM,[3],15.9%
same,IC50,"20 mV, 2 µM Ca2+",3.42 µM
same,IC50,"40 mV, 2 µM Ca2+",2.77 µM
same,IC50,"60 mV, 2 µM Ca2+",2.32 µM
same,IC50,"80 mV, 2 µM Ca2+",2.06 µM
same,IC50,"100 mV, 2 µM Ca2+",2 µM
same,IC50,"120 mV, 2 µM Ca2+",2.1 µM
same,IC50,"140 mV, 2 µM Ca2+",2.41 µM
same,IC50,"-20 mV, 2 µM Ca2+",5.63 µM
same,IC50,"-40 mV, 2 µM Ca2+",7.34 µM
same,IC50,"-60 mV, 2 µM Ca2+",9.2 µM
same,IC50,"-80 mV, 2 µM Ca2+",11.6 µM
same,IC50,"-100 mV, 2 µM Ca2+",14.1 µM
same,IC50,"-120 mV, 2 µM Ca2+",17.2 µM
same,IC50,"-140 mV, 2 µM Ca2+",19.9 µM
same,Selectivity for anion channels of the TMEM16 family over the scramblase TMEM16F,"TMEM16A and TMEM16B blocked, TMEM16F current not",selective for anion channels of the TMEM16 family over the scramblase TMEM16F
same,Electrical distance of 1PBC block,functional experiments,0.2-0.25
same,Membrane permeability,"neutral pH, implied from block from the extracellular side after intracellular application",freely membrane-permeable
same,IC50,"zero mV, saturating Ca2+ concentration (2 µM), applied from the intracellular side",~4 µM
